Test results from PMC11990158, “Synthetic Epoxyeicosatrienoic Acid Mimics Protect Mesangial Cells from Sorafenib-Induced Cell Death” (Molecules, 2025).

Target: T1, human soluble epoxide hydrolase (sEH) (Homo sapiens, UniProt P34913)
T1 sequence (P34913 1-555): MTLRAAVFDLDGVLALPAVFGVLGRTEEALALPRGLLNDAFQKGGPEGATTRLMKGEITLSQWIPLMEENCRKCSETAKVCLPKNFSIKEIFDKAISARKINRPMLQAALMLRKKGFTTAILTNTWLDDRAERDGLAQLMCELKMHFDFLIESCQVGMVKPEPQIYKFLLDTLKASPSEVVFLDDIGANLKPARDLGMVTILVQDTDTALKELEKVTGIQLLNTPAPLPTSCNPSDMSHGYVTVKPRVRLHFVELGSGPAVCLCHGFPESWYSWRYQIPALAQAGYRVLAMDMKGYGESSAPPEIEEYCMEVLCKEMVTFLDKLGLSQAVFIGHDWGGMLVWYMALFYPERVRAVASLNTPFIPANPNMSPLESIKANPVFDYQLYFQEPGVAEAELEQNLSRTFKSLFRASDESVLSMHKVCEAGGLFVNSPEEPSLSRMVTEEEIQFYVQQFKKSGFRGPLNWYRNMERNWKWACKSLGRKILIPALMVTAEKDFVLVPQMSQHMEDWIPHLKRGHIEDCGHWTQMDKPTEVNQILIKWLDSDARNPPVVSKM
Test: not given
Conditions: cited from earlier work

Row | SMILES | sEH inhibition (in words)
1 | CNC(=O)c1cc(Oc2ccc(NC(=O)Nc3ccc(Cl)c(C(F)(F)F)c3)cc2)ccn1 [Sorafenib] | potent sEH inhibitor

Tested on: human renal mesangial cells (HRMCs)
Test: WST-8 cell viability assay, protection against sorafenib-induced cell death
Type: cell-based
Conditions: sorafenib 10 µM alone, 48 h
Procedure: Human renal mesangial cells (4200, ScienCell, Carlsbad, CA, USA) were cultured at 37 °C (in 5% CO2) in RPMI 1640 medium (Gibco™, LS11875093) containing 10% FBS, 100 U/mL of penicillin, and 0.1 mg/mL of streptomycin. The cells were subculture following the protocol of the manufacturer.
WST assay: To evaluate the effect of 8,9-EET analogs and sorafenib on the viability of human renal mesangial cells, a 96-well TPP plate is seeded with cells, which are then allowed to adhere. Over the course of 24 h, they undergo serum starvation before being subject to one of five treatments: Control (no treatment), Sorafenib (10 µM), Sorafenib plus 8,9-EET analogs (1 µM, 3 µM or 10 µM). After 48 h incubation, a WST assay used to gain information on cell survival; we added 10 μL WST reagent per well and incubated for 2 h. WST-8 tetrazolium salt is reduced by cellular dehydrogenases to an orange formazan product that is soluble in tissue culture medium. The amount of formazan produced is directly proportional to the number of living cells and is measured by absorbance at 460 nm. The absorbance at 460 nm is determined using a Synergy 4 Microplate Reader.

Row | SMILES | cells dying on sorafenib exposure
2 | CNC(=O)c1cc(Oc2ccc(NC(=O)Nc3ccc(Cl)c(C(F)(F)F)c3)cc2)ccn1 [Sorafenib] | around 90%

Target: T1, human soluble epoxide hydrolase (sEH)
Test: Human sEH inhibition, fluorescent assay (MNPC substrate)
Type: biochemical
Conditions: not given
Procedure: The inhibition potency of the compounds against the recombinant purified human and mouse sEH and human mEH were measured using sensitive fluorescent assays. The enzymes were diluted to the proper buffer and aliquoted in black 96-well plates. The enzymes were incubated with the inhibitors (0.4 < [I] < 50,000 nM) for 5 min at 37 °C before the introduction of the reporting substrate. For the sEH, nonfluorescent cyano(6-methoxy-naphthalen-2-yl)methyl trans-[(3-phenyloxiran-2-yl)methyl] carbonate MNPC was used as the reporting substrate at a final concentration of 5 μM [51]. For the mEH, cyano(6-methoxy-naphthalen-2-yl)methyl glycidyl carbonate (MNGC) was used at a final concentration of 5 µM. The formation of the product (6-methoxynaphthaldehyde) was measured ([…]) every 30 s for 10 min by a Molecular Device M-2 plate reader. All measurements were performed in triplicate. The inhibitory potency (IC50) was calculated by regression of at least four data points on both sides of the 50% mark.

Row | sEH inhibition (in words) | SMILES
3 | insignificant inhibitor of sEH | CCCCCCCCCCCNC(=O)C(=O)NCCCCCC(=O)O [8b, 6-(2-Oxo-2-(undecylamino)acetamido)hexanoic Acid]

Same assay, conditions: recombinant purified human sEH, 5 min preincubation at 37 °C, MNPC 5 µM; read-out: HsEH IC50

Row | SMILES | IC50
4 | CCCCCCCCCCNC(=O)NCCCCOCC(=O)O [7a, 2-(4-(3-Decylureido)butoxy)acetic Acid] | 0.83 µM
5 | CCCCCCCCCCCNC(=O)NCCCCOCC(=O)O [7b, 2-(4-(3-Undecylureido)butoxy)acetic Acid] | 1.8 µM
6 | CCCCCCCCCCNC(=O)NC/C=C\COCC(=O)O [7c, (Z)-2-((4-(3-Decylureido)but-2-en-1-yl)oxy)acetic Acid] | 2.1 µM
7 | CCCCCCCC/C=C\CNC(=O)NCCCCOCC(=O)O [7e, (Z)-2-(4-(3-(undec-2-en-1-yl)ureido)butoxy)acetic Acid] | 1.6 µM
8 | CCCCCCCC/C=C\CNC(=O)NC/C=C\COCC(=O)O [7f, 2-(((Z)-4-(3-((Z)-undec-2-en-1-yl)ureido)but-2-en-1-yl)oxy)acetic Acid] | 2.6 µM

Next, values leading:

Row | IC50 | SMILES
9 | 51 µM | CCCCCCCCCCNC(=O)C(=O)NCCCCCC(=O)O [8a, 6-(2-(Decylamino)-2-oxoacetamido)hexanoic Acid]
10 | > 100 µM | CCCCCCCCCCCNC(=O)C(=O)NCCCCCC(=O)O [8b, 6-(2-Oxo-2-(undecylamino)acetamido)hexanoic Acid]
11 | 64 µM | CCCCCCCCCNC(=O)C(=O)NCCCCCCC(=O)O [8c, 7-(2-(Nonylamino)-2-oxoacetamido)heptanoic Acid]
12 | 49 µM | CCCCCCCCCCNC(=O)C(=O)NCCCCCCC(=O)O [8d, 7-(2-(Decylamino)-2-oxoacetamido)heptanoic Acid]
13 | 19 µM | CCCCCCCC/C=C\CNC(=O)C(=O)NCCCCCC(=O)O [8e, (Z)-6-(2-Oxo-2-(undec-2-en-1-ylamino)acetamido)hexanoic Acid]
14 | 9.6 µM | CCCCCCCCCCCC(=O)NCCCCCC(=O)O [9a, 6-Dodecanamidohexanoic Acid]
15 | 6.4 µM | CCCCCCCCCCCCC(=O)NCCCCCC(=O)O [9b, 6-Tridecanamidohexanoic Acid]
16 | 2.3 µM | CCCCCCCCCCCC(=O)NCCCCCCC(=O)O [9c, 7-Dodecanamidoheptanoic Acid]
17 | 2.4 µM | CCCCCCCCCCCCC(=O)NCCCCCCC(=O)O [9d, 7-Tridecanamidoheptanoic Acid]
18 | 3.5 µM | CCCCCCCCCCCNC(=O)CCCCCCC(=O)O [10a, 8-Oxo-8-(undecylamino)octanoic Acid]
19 | 2.7 µM | CCCCCCCCCCCCNC(=O)CCCCCCC(=O)O [10b, 8-(Dodecylamino)-8-oxooctanoic Acid]
20 | 0.9 µM | CCCCCCCCCCCNC(=O)CCCCCCCC(=O)O [10c, 9-Oxo-9-(undecylamino)nonanoic Acid]
21 | 0.82 µM | CCCCCCCC/C=C\CNC(=O)CCCCCCCC(=O)O [10d, (Z)-9-Oxo-9-(undec-2-en-1-ylamino)nonanoic Acid]
